Measured values: PubChem BioAssay AID1996
In brackets after ≈: the same amount, converted by molar mass.

Settings: buffer; pH 7.4; 200.0 µM
With `Cn1ccnc1C(=O)c1ccc(N)cc1` the solubility kinetic was over 30.2 µg/mL.
Work on `O=[N+]([O-])c1ccc(N=Cc2c(O)ccc3ccccc23)cc1` yielded a solubility kinetic of 30.5 µg/mL (≈ 104 µM).
`O=C(NCCCNC(=O)c1cccnc1)c1ccc(Cl)cc1` showed a solubility kinetic of 43.3 µg/mL (≈ 136 µM).
Molecule `CC1(c2ccccc2)NC(=O)N(CC(=O)Nc2ccccc2C(=O)NC2CC2)C1=O` (centres undefined) has a solubility kinetic of over 61 µg/mL.
For `S=C(NCc1ccccc1)Nc1ccc(Oc2ccccc2)cc1`, the solubility kinetic was 6.8 µg/mL (≈ 20.3 µM).
In the case of `CCC(=NCc1cccnc1)c1c(O)n(-c2ccccc2C)c(=O)[nH]c1=O`, the solubility kinetic is reported as over 54.7 µg/mL.
`O=C(NNC(=O)c1cc([N+](=O)[O-])ccc1Cl)c1cccnc1` showed a solubility kinetic of over 48.1 µg/mL.
Molecule `O=C(NCCO)C1COc2ccccc2O1` (centres undefined) has a solubility kinetic of over 33.5 µg/mL.
`COc1ccc(CCNC(=O)COC(=O)/C=C/c2cc(OC)ccc2OC)cc1` showed a solubility kinetic of 5.3 µg/mL (≈ 13.3 µM).
In the case of `Cc1cc(C)c(NC(=O)C(=O)NCc2ccco2)c(C)c1`, the solubility kinetic is reported as 4.1 µg/mL (≈ 14.3 µM).
With `CC(C)Cc1ccc(S(=O)(=O)NCC2CCCO2)cc1` (centres undefined) the solubility kinetic was 33.6 µg/mL (≈ 113 µM).
Work on `CCCc1cc(=O)[nH]c(SCc2ccc(F)cc2)n1` yielded a solubility kinetic of 3.2 µg/mL (≈ 11.5 µM).
Work on `CCOc1ccc(NC(=O)Nc2nc(SCC)ns2)cc1` yielded a solubility kinetic of 0.8 µg/mL (≈ 2.47 µM).
In the case of `CCOC(=O)N1CCc2c(sc(NC(=O)CN(CC)CC)c2C#N)C1`, the solubility kinetic is reported as over 54.7 µg/mL.
In the case of `Cc1ccccc1NC(=S)N(Cc1ccccc1)Cc1cccnc1`, the solubility kinetic is reported as 43.9 µg/mL (≈ 126 µM).
In the case of `O=C(CCC(=O)c1ccc(Cl)cc1)NCc1ccccc1`, the solubility kinetic is reported as 14.3 µg/mL (≈ 47.4 µM).
`CN(C)C(=S)Nc1ccc(S(=O)(=O)N2CCCCC2)cc1` showed a solubility kinetic of 47.1 µg/mL (≈ 144 µM).
For `Cc1ccc(NC(=O)CNC(=O)OCc2ccccc2)cc1C`, the solubility kinetic was 10.3 µg/mL (≈ 33 µM).
For `Cc1ccc(N(C)S(=O)(=O)c2cccc(C(=O)OCC(=O)c3c(N)n(C)c(=O)n(C)c3=O)c2)cc1`, the solubility kinetic was 8.1 µg/mL (≈ 16.2 µM).
Molecule `CC(C)(C)/C(COc1ccccc1[N+](=O)[O-])=N/O` has a solubility kinetic of 20.6 µg/mL (≈ 81.7 µM).
For `O=C(c1ccc(COc2ccccc2Cl)o1)N1CCOCC1`, the solubility kinetic was 34.4 µg/mL (≈ 107 µM).
With `COc1ccc(C(=O)N2CCC3(CC2)OCCO3)cc1` the solubility kinetic was over 41.6 µg/mL.
For `Cn1c(Nc2ccccc2)cc(=O)n(C)c1=O`, the solubility kinetic was over 34.7 µg/mL.
In the case of `O=C(c1cccs1)N1CCN(c2ccc(Cl)cc2)CC1`, the solubility kinetic is reported as 39.2 µg/mL (≈ 128 µM).
For `CC1CN(CC(=O)Nc2ccc([N+](=O)[O-])cc2Br)CC(C)O1` (centres undefined), the solubility kinetic was 6.4 µg/mL (≈ 17.2 µM).
In the case of `O=Cc1c(C(=O)O)n(Cc2ccccc2Cl)c2ccccc12`, the solubility kinetic is reported as over 47.1 µg/mL.
For `CSc1nc2nc3c(cc2c(=O)n1-c1ccc(C)cc1)COC(C)(C)C3`, the solubility kinetic was 2.3 µg/mL (≈ 6.26 µM).
`O=C(Cc1ccccc1F)NC1CCSc2ccccc21` (centres undefined) gave a solubility kinetic of 8.1 µg/mL (≈ 26.9 µM).
In the case of `CCOc1ccccc1NC(=O)C(=O)CC(=O)c1cccc(OC)c1`, the solubility kinetic is reported as 9.6 µg/mL (≈ 28.1 µM).
Molecule `COc1ccc(/C=C2\SC(=N)N(c3ccc(F)cc3)C2=O)cc1OC` has a solubility kinetic of 3.8 µg/mL (≈ 10.6 µM).
Molecule `O=C(NCc1cccnc1)Nc1cccc(Cl)c1` has a solubility kinetic of 37.2 µg/mL (≈ 142 µM).
Molecule `CCN(C(=O)CSc1ccc2ccccc2n1)C1CCCCC1` has a solubility kinetic of 14.6 µg/mL (≈ 44.4 µM).
`COC(=O)c1ccccc1C(=O)N1CC(O)CO1` (centres undefined) showed a solubility kinetic of over 37.7 µg/mL.
In the case of `CC(C)c1cc(=O)[nH]c(SCC(=O)NC2CCCC2)n1`, the solubility kinetic is reported as over 44.3 µg/mL.
`O=C(COC(=O)c1ccccc1F)Nc1ccc(S(=O)(=O)N2CCOCC2)cc1` gave a solubility kinetic of 38 µg/mL (≈ 90 µM).
`CCC(=O)OCCNc1nc(-c2ccccc2)nc2ccccc12.Cl` showed a solubility kinetic of 5.3 µg/mL.
For `COc1ccc2oc(=O)cc(CN3CCOCC3)c2c1`, the solubility kinetic was 39.5 µg/mL (≈ 143 µM).
`CC1CCC(NC(=O)C2CC(O)CN2S(=O)(=O)c2ccc([N+](=O)[O-])cc2)CC1` (centres undefined) gave a solubility kinetic of over 61.7 µg/mL.
In the case of `COc1ccc(-n2c(CNCCc3ccc(C)cc3)nc3ccccc3c2=O)cc1`, the solubility kinetic is reported as 45.2 µg/mL (≈ 113 µM).
In the case of `Cc1ccc(C(=O)Nc2ccc(NC(=O)c3ccco3)c(C)c2)cc1`, the solubility kinetic is reported as 2.8 µg/mL (≈ 8.37 µM).
Work on `COCCCNc1nc(N)c([N+](=O)[O-])c(Nc2ccccc2OC)n1` yielded a solubility kinetic of 1 µg/mL (≈ 2.87 µM).
`CN1CCN(c2nc3c(c(=O)[nH]c(=O)n3C)n2Cc2ccccc2)CC1` gave a solubility kinetic of 52.7 µg/mL (≈ 149 µM).
In the case of `Cc1ccc(O)c(NC(=S)NC(=O)/C=C/c2ccccc2)c1`, the solubility kinetic is reported as under 0.3 µg/mL.
Work on `O=C(COc1ccccc1F)Nc1ccc2[nH]c(=O)[nH]c2c1` yielded a solubility kinetic of 4.5 µg/mL (≈ 14.9 µM).
`COc1ccc(C2/C(=C(/O)c3ccc(F)cc3)C(=O)C(=O)N2CCCN2CCOCC2)cc1OC` (centres undefined) gave a solubility kinetic of over 72.7 µg/mL.
In the case of `O=C(CCc1nc2ccccc2s1)NC1CCOC1=O` (centres undefined), the solubility kinetic is reported as over 43.6 µg/mL.
Molecule `CC(=O)Nc1nc(CC(C)C)cc(-c2ccccc2)c1C#N` has a solubility kinetic of over 44 µg/mL.
Work on `O=C1NCC(COc2ccc([N+](=O)[O-])cc2)O1` (centres undefined) yielded a solubility kinetic of 34.1 µg/mL (≈ 143 µM).
With `CCC1Oc2ccc(C)cc2N(CC(=O)N2CCCC2)C1=O` (centres undefined) the solubility kinetic was over 45.4 µg/mL.
`COc1ccccc1NC(=O)COC(=O)/C=C/c1ccc(OC)c(OC)c1` showed a solubility kinetic of 4.1 µg/mL (≈ 11 µM).
For `O=C(Nc1cccc(Cl)c1)N1CCc2ccccc2C1`, the solubility kinetic was 1.9 µg/mL (≈ 6.63 µM).
`CC(OC(=O)Cn1ccccc1=O)C(=O)Nc1cc(Cl)cc(Cl)c1` (centres undefined) showed a solubility kinetic of over 55.4 µg/mL.
`Nc1cccc2c1C(=O)N(Cc1cccc(Cl)c1)C2=O` showed a solubility kinetic of under 0.3 µg/mL.
Work on `COC(=O)C1CCN(C(=O)COC(=O)c2ccc(N3CCCC3=O)cc2)CC1` yielded a solubility kinetic of over 58.3 µg/mL.
Molecule `N#Cc1ccc(Oc2cnccn2)cc1` has a solubility kinetic of over 29.6 µg/mL.
Work on `O=S(=O)(NCC1COc2ccccc2O1)c1ccccc1F` (centres undefined) yielded a solubility kinetic of over 48.5 µg/mL.
Molecule `COc1ccc(/C=C/C(=O)N(C)c2ccccc2C(=O)O)cc1` has a solubility kinetic of 45.2 µg/mL (≈ 145 µM).
`C=CCNc1nc(N)c([N+](=O)[O-])c(Nc2cccc(Cl)c2)n1` gave a solubility kinetic of 0.1 µg/mL (≈ 0.312 µM).
`CNc1nc2c(N)ncnc2n1[C@H]1O[C@@H](CO)[C@H](O)[C@@H]1O` showed a solubility kinetic of over 44.4 µg/mL.
